Measurements from US8377455B2, “Biosurfactant composition produced by a new Bacillus licheniforms strain, uses and products thereof” (priority 2008, dated 2013).
Like-named read-outs stand apart in the source and are kept apart here.

What was measured:
[1] = system: planktonic E. coli CFT073; assay: Susceptibility of planktonic cultures to antibiotics with or without V9T14 (MIC by OD650, MBC by viable cell count); format: cell-based, Escherichia coli; settings: for change of MBC99.99% by V9T14 / effect of V9T14 on planktonic killing: 5 μg/mL V9T14; for MIC / MBC: Escherichia coli; for MBC: read-out: MBC99.99%, Ab; for concentration at which complete eradication of planktonic cells was observed: antibiotic plus 5 μg/mL V9T14; for MBC99.99%, AbBs: antibiotic plus 5 μg/mL V9T14 biosurfactant; for increase of planktonic killing by V9T14: at 2 μg/mL antibiotic
Description: (§1) Antibiotics were serially diluted (log2) using 0.9% saline in a 96-well microtiter plate, and then a solution of biosurfactant was added to each well to reach a final concentration of 5 μg/mL.
(§2) E. coli CFT073 biofilms were grown on the CBD at 37° C. for 24 h in a rotatory shaker at 130 rpm, as described above. Then CBD lid was rinsed twice with 0.9% saline, exposed to the antibiotics and antibiotic plus biosurfactant microtiter plate and incubated at 37° C., 125 rpm for 24 h. After exposure, the CBD was removed and the 96-well microtiter plate was used to estimate minimal inhibitory concentration (MIC) and minimal bactericidal concentration (MBC99.99%) values. For MIC value, the plate was read using a spectrophotometer at 650 nm, MIC was defined as the lowest concentration not presenting turbidity; according to the guidelines of the American Clinical Laboratory Standards Institute, the minimum bactericidal concentration (MBC) is conventionally defined as a concentration of an antimicrobial agent that kills 3 log10 cells of a bacterial culture (or 99.9% of the bacteria). In our experiments we used a more restrictive criterion, defining the MBC99.99% value, defined as the lowest concentration of the antibiotic activity higher than 4 log10 by viable cell count. Minimal biofilm eradication concentration (MBEC99.9%) was defined as the lowest concentration to eradicate 3 log10 of the viable microorganisms in a biofilm.
(§3) The difference attributed to synergy is expressed in Δ values between the log10 antibiotic cell count reduction and the log10 association value. “Eradication” was defined as no growth in antibiotic-free plates after planktonic culture initially incubated in antibiotic-containing LB broth.

E. coli CFT073 biofilm = assay: Susceptibility of 24 h biofilm on CBD to antibiotics with or without V9T14 (MBEC, viable cell count, CLSM); format: cell-based, Escherichia coli; settings: for MBEC99.9%, Ab: 3 log10 reduction; for MBEC99.9%, AbBs: antibiotic plus 5 μg/mL V9T14 biosurfactant
Description: as §1, §2
Pegs were broken from the lid of the CBD using pliers (Harrison et al. 2006) and then rinsed once with 0.9% saline to remove planktonic forms. Prior to examination by CLSM, biofilms were fluorescently stained with acridine orange (AO) (Sigma Chemical Co., St. Louis, Mo., USA). To stain biofilms, pegs were immersed in 0.1% w/v AO in PBS for 5 min at room temperature in the dark. To determine live and dead cell distribution in antibiotic experiments, rinsed biofilms were stained with Syto-9 (6.7 μM) and propidium iodide (40 μM) (Live/Dead® BacLight™ Kit, Molecular Probes, Burlington, ON, Canada) at 30° C. for 30 min. Fluorescently stained biofilms were placed in two drops of 0.9% saline on the surface of a glass coverslip. These pegs were examined using a Leica DM IRE2 spectral confocal and multiphoton microscope with a Leica TCS SP2 acoustic optical beam splitter (AOBS) (Leica Microsystems, Richmond Hill, ON, Canada). To minimize or eliminate artefacts associated with single and/or simultaneous dual wavelength excitation, all dual labelled samples were sequentially scanned, frame-by frame, first at 476 or 488 nm and then at 543 nm. Fluorescence emission Δ was then sequentially collected in the green and red regions of the spectrum, respectively. Line averaging (×2) was used to capture images with reduced noise. A 63× water immersion objective was used in all imaging experiments. Image capture and two dimensional projections of z-stacks were performed using Leica Confocal Software (LCS, Leica Microsystems).
as §3

[2] = 24 h, antibiotic alone, 24 h, OD650, read-out: MIC, Ab
[3] = antibiotic without V9T14 (figure legend), read-out: MIC value used in FIG. 21
[4] = antibiotic alone, 24 h, 4 log10 reduction

SMILES	change of MBC99.99% by V9T14 [1]	MIC [1, 2] [µg/mL]	MIC [1, 3] [µg/mL]	MBC [1, 4] [µg/mL]	concentration at which complete eradication of planktonic cells was observed [1] [µg/mL]	MBC99.99%, AbBs ([1]; 24 h) [µg/mL]	biofilm reduction (E. coli CFT073 biofilm; antibiotic alone at 4 μg/mL) [log10]	MBEC99.9%, Ab (E. coli CFT073 biofilm; antibiotic alone, 24 h) [µg/mL]	MBEC99.9%, AbBs (E. coli CFT073 biofilm; 24 h) [µg/mL]	MIC, Ab ([1]; antibiotic alone, 24 h, OD650) [µg/mL]	planktonic population reduction ([1]; antibiotic alone at 1 μg/mL) [log10]	increase of planktonic killing by V9T14 [1] [log10]	effect of V9T14 on planktonic killing [1]	change of MBEC99.9% by V9T14 (E. coli CFT073 biofilm; 5 μg/mL V9T14)	also measured
CC1(C)S[C@@H]2[C@H](NC(=O)[C@H](N)c3ccccc3)C(=O)N2[C@H]1C(=O)O [Ampicillin, ampicillin]	not modified	2 to 4	2	1 to 2	8	1 to 2	3	4	0.5 to 1	–	–	–	–	–	surviving planktonic population ([1]; antibiotic alone up to 16 μg/mL): 10^2 cfu/mL; increase of planktonic killing efficacy by V9T14 ([1]; concentration not given): 2 log10; surviving biofilm population (E. coli CFT073 biofilm; 1 μg/mL antibiotic plus V9T14): 10^1 cfu/peg; biofilm subpopulation remaining viable (E. coli CFT073 biofilm; antibiotic alone, 24 h): 10^3 cfu/peg; concentration at which sessile forms were eradicated (E. coli CFT073 biofilm; antibiotic plus V9T14): 8 µg/mL; effect on adherent biofilm cells (E. coli CFT073 biofilm; association of V9T14 with the antibiotic): complete eradication; enhancement of antibiotic effect on biofilm by V9T14 (E. coli CFT073 biofilm; at 1 μg/mL antibiotic): 4 log10
Cc1nnc(SCC2=C(C(=O)O)N3C(=O)[C@@H](NC(=O)Cn4cnnn4)[C@H]3SC2)s1 [Cefazolin, cefazolin]	–	–	8	16	32	8	–	–	8	1 to 2	–	–	–	–	maximum planktonic killing effect ([1]; 32 μg/mL antibiotic plus V9T14): 8.4 log10; MIC ([1]; 24 h, antibiotic plus 5 μg/mL V9T14, 24 h, OD650, read-out: MIC with V9T14): 8 µg/mL; planktonic killing ([1]; antibiotic alone at 16 μg/mL): more than 4 log10 cfu/mL; maximum planktonic killing effect ([1]; antibiotic alone at 32 μg/mL): 6.9 log10; MIC, Ab ([1]; antibiotic alone, 24 h, OD650, listed as cefazolin): 16 µg/mL; biofilm reduction (E. coli CFT073 biofilm; antibiotic alone, up to highest concentration tested): about 2.2 log10
CO/N=C(\C(=O)N[C@@H]1C(=O)N2C(C(=O)O)=C(CSc3nc(=O)c(O)nn3C)CS[C@H]12)c1csc(N)n1 [Cefriaxone, ceftriaxone]	not modified	–	–	–	2	0.5 to 1	–	1 to 2	0.5 to 1	1 to 2	7	1.7	–	–	planktonic population reduction ([1]; antibiotic alone at 0.5 μg/mL): 3 log10; MBC99.99%, Ab [1, 4]: 0.5 to 1 µg/mL; MIC value used in FIG. 21 ([1]; antibiotic without V9T14 (figure legend)): 1 µg/mL; final enhancement of biofilm removal by V9T14 (E. coli CFT073 biofilm; 2 μg/mL antibiotic): 1.2 log10; enhancement of biofilm removal by V9T14 (E. coli CFT073 biofilm; 0.25-0.5 μg/mL antibiotic): 0.6 log10; biofilm reduction (E. coli CFT073 biofilm; antibiotic alone at 1 μg/mL): 3 log10; further increase of biofilm removal by V9T14 (E. coli CFT073 biofilm; for 2 μg/mL antibiotic, on top of the 0.25-0.5 μg/mL increase): 0.6 log10
O=C(O)c1cn(C2CC2)c2cc(N3CCNCC3)c(F)cc2c1=O [Ciprofloxacin, ciprofloxacin]	not modified	8 to 16	–	0.25 to 0.5	–	0.25 to 0.5	–	–	–	–	6.8	1.4	–	–	–
CCN1CCN(C(=O)N[C@@H](C(=O)N[C@@H]2C(=O)N3[C@@H]2SC(C)(C)[C@@H]3C(=O)O)c2ccccc2)C(=O)C1=O [Piperacillin, piperacillin]	not affected	> 32	32	> 32	–	>32	1	>32	>32	–	–	–	no improvement	not affected	planktonic population reduction ([1]; antibiotic alone at 4 μg/mL): 2.7 log10; effect of V9T14 on biofilm killing (E. coli CFT073 biofilm; 5 μg/mL V9T14): no improvement; synergy with V9T14 (criterion ≧1 log10 decrease) (E. coli CFT073 biofilm; 24 h exposure): not able to satisfy our discrimination criterion for synergy identification
NC[C@H]1O[C@H](O[C@H]2[C@H](O)[C@@H](O[C@H]3O[C@H](CO)[C@@H](O)[C@H](N)[C@H]3O)[C@H](N)C[C@@H]2N)[C@H](N)C[C@@H]1O [Tobramycin, tobramycin]	not modified	16 to 32	16	8 to 16	–	8 to 16	–	2 to 4	2 to 4	–	–	–	no increase of activity	not modified	planktonic growth, OD650 ([1]; 4 μg/mL antibiotic alone): 0.31; planktonic growth, OD650 ([1]; 4 μg/mL antibiotic plus 5 μg/mL V9T14): 0.18; concentration giving complete eradication of planktonic population ([1]; antibiotic alone): 16 µg/mL; planktonic population reduction ([1]; antibiotic alone up to 8 μg/mL): 1 log10; increased efficacy against sessile forms by V9T14 (E. coli CFT073 biofilm; 16 μg/mL antibiotic): 1 log10; effect on mature biofilm by CLSM (Live/Dead) (E. coli CFT073 biofilm; 16 μg/mL antibiotic alone): significant killing of biofilm population; mature biofilm reduction by CLSM (Live/Dead) (E. coli CFT073 biofilm; 16 μg/mL antibiotic plus 5 μg/mL V9T14): further increased; biofilm survival subpopulation (E. coli CFT073 biofilm; antibiotic alone at 8-16 μg/mL): about 10^2 cfu/mL; biofilm decrease (E. coli CFT073 biofilm; antibiotic alone, stabilizing at 8-16 μg/mL): 4 log10
